{"source": "patent US20060276537A1", "about": "“Use of ladostigil for the treatment of multiple sclerosis” (priority 2005, published 2006)", "format_in_all_cases": "in vivo", "key": {"[1]": {"test_system": "relapsing remitting EAE in 129/SvEv mice", "experiment": "MOG-induced relapsing remitting EAE in 129/SvEv mice", "method": "This experiment is conducted to evaluate whether ladostigil tartrate is effective in alleviating EAE. EAE is induced in mice by the administration of myelin oligodendrocyte glycoprotein (MOG). Injection of MOG into 129/SvEv mice produces a relapsing remitting EAE (murine model of relapsing remitting multiple sclerosis).\nOne week before MOG immunization, 129/SvEv mice receive a sub-optimal dose of ladostigil tartrate or saline vehicle. Over a period of 1-2 months following MOG immunization, clinical scores are monitored by weighing animals on a daily basis and grading the severity of EAE. In addition to clinical evaluation, groups of mice are sacrificed at weekly intervals for routine histological examination (hematoxylin-eosin and luxol fast blue for evidence of inflammation and demyelination, respectively). Also, cellular infiltrates are examined for CD3 (T lymphocytes), CD56 (natural killer cells) and CD19 (B cell immunohistochemistry). Loss of neurons and oligodendrocytes is assessed using immunohistochemistry for NeuN and glutathione-S-transferase pi isoform, respectively. Furthermore, axonal integrity is examined using immunohistochemistry for β-amyloid precursor protein or neurofilament, and by Bielchowsky silver stains. The neuropathological assessments are focused on the optic nerve, lumbar/sacral cord and brain stem."}, "[2]": {"target": "T1, butyrylcholinesterase (BChE) (Mus musculus, UniProt Q03311)", "T1 construct": "Homogenate of 100 mg brain tissue in 1 ml 100 mM phosphate buffer pH=8.0 was prepared; from tissue; host or cells: brain homogenate and blood hemolysate of ladostigil-treated EAE mice", "T1 sequence (Q03311 30-603)": "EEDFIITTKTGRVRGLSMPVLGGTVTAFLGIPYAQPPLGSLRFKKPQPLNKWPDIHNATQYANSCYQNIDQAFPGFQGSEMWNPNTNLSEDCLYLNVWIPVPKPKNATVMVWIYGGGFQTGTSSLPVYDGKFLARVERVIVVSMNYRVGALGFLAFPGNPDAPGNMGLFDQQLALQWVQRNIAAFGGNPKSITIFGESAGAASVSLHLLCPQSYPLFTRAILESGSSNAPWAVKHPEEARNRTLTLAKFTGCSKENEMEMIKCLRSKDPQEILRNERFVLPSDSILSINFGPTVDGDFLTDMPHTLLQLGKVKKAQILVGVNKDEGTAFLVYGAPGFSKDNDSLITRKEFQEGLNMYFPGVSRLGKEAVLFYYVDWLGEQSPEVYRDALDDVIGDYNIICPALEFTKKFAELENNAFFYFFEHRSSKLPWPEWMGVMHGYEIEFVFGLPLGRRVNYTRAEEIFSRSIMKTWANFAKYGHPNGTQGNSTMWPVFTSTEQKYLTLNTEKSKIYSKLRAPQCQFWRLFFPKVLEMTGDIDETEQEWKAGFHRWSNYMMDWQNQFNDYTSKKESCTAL", "experiment": "Cholinesterase assay (modified Ellman, BTC substrate) in brain and blood of treated EAE mice", "conditions": "for Brain BuChE U/g: results on the limit of assay sensitivity; for inhibition at 10.2 mg/kg / inhibition at 25.5 mg/kg / inhibition at 51 mg/kg / inhibition at 70.1 mg/kg: mouse", "method": "From the mice of Example 2, acetylcholinesterase (AChE) and butyrylcholinesterase (BChE) activities were determined by a modification of Ellman's spectophotometric method using acetyltiocholine (ATC) and butyryltiocholine (BTC) as substrates.\nHomogenate of 100 mg brain tissue in 1 ml 100 mM phosphate buffer pH=8.0 was prepared. 0.4 ml of crude homogenate was added to 1.2 ml pre-warmed 4 mM 5,5′-Dithiobis(2-nitrobenzoic acid) (DTNB or Ellman's reagant); 30 μl from this mixture were added to 210 μl pre-warmed (28° C.) 50 mM phosphate buffer in a microplate; and the reaction was started by addition of 10 μl ATC or BTC (final concentration=1 mM) or water (for the blank reaction) The increase in optical density (OD) at 412 nm was monitored for 3 minutes and the slope of the straight line obtained by linear regression provided the activity in terms of ΔOD/min using SOFTMAX® software. Blank reaction was subtracted.\nConversion of ΔOD/min into Enzyme Activity was Performed as Follows: Unit enzyme/gram tissue=OD/min*0.25/10.54*4*1000/30*11\nThe same procedure was performed as with brain homogenate using 50 μl of ¼ hemolysate/DTNB mixture.\nEnzyme activity in the blood was calculated in units/1 ml whole blood.\nBuChE activity was calculated directly from the ΔOD/min of BTC."}, "[3]": {"test_system": "chronic progressive EAE induced by pMOG35-55 in C57BL/6 mice", "experiment": "MOG-induced chronic progressive EAE in C57BL/6 mice, clinical scoring", "conditions": "gavage once daily from day 0; for % Inhibition: vs control group mean score", "method": "MOG (Myelin oligodendrocyte glycoprotein) is a member of the immunoglobulin superfamily expressed exclusively in CNS myelin. It is one of the most encephalitogenic proteins and is widely used to induce EAE in different rodent strains. In C57BL/6 mice, immunization with the MOG peptide pMOG35-55 in CFA induces chronic progressive EAE. Ladostigil was tested in this model in order to assess its ability to inhibit the disease.\nEAE was induced by subcutaneous injection of encephalitogenic emulsion at a volume of 0.2 ml/mouse in the right flank. On the day of induction, pertussis toxin was injected intraperitoneally at a volume dose of 0.2 ml/mouse. The injection of the pertussis toxin was repeated after 48 hours. At the end of the experiment, 6-7 brains from control and the ladostigil groups were dissected and frozen at −70° C. for CHE (cholinesterase) determination and 6-7 brains were dissected and frozen for MAO (monoamine oxidase) determination. Before sacrifice, blood for ChE determination was taken on heparine, hemolysed 1/20 in 10 mM cold phosphate buffer pH=6.0 and stored at −70° C. until the assay.\n90 female C57Bl/6 mice 8-10 weeks old obtained from Harlan animal breeding center were used in the study. Mice were allocated randomly into 6 groups:\nBoth compounds were administered by gavage once daily during the whole experiment (30 days) at a volume of 0.2 ml/mouse.\nThe mice were observed daily from the 10th day post-EAE induction and the EAE clinical signs were scored. The scores were recorded on observation cards according to the grades described in Table 5:\nThe number of sick animals (animals with a score of ≧1 at any point) in each group was summed.\nThe incidence of disease and the % activity were calculated as follows: [formula] [formula] [formula]\nThe maximal scores of all mice in each group were summed.\nThe mean maximal score and the % activity of the group were calculated as follows: [formula] [formula] [formula]\nThe individual scores (IMS) of each of the mice during the observation period were summed (score 6 will be counted forward).\nThe GMS of the group and its % activity were calculated as follows: [formula] [formula] [formula]\nTheir dates of onset were calculated as day of termination +1."}, "[4]": {"conditions": "sub-optimal dose from one week before MOG immunization, vs saline vehicle"}}, "note": "Where two headings read alike, the source gives them in different places.", "data": [{"compound": "C#CCN[C@@H]1CCc2ccc(OC(=O)N(C)CC)cc21", "note": "[Ladostigil, R(+)-6-(N-methyl,N-ethyl-carbamoyloxy)-N′-propargyl-1-aminoindan]", "values": [{"measurement": "incidence and severity of EAE", "setting": "[1]; compared to control", "result": "decreases both the incidence and severity of EAE"}, {"measurement": "area under the curve (clinical score)", "setting": "[1]; [4]", "result": "smaller area under the curve"}, {"measurement": "clinical score", "setting": "[1]; [4]", "result": "lower clinical score"}, {"measurement": "BChE inhibition", "setting": "[2]; 51 and 70.1 mg/kg/day, brain and blood", "result": "35-42%"}, {"measurement": "Blood BuChE U/ml", "setting": "[2]; blood of EAE mice, 10.2 mg/kg salt", "result": "1.52 +/− 0.24 U/ml"}, {"measurement": "Blood BuChE U/ml", "setting": "[2]; blood of EAE mice, 25.5 mg/kg salt", "result": "1.47 +/− 0.18 U/ml"}, {"measurement": "Blood BuChE U/ml", "setting": "[2]; blood of EAE mice, 51 mg/kg salt", "result": "1.06 +/− 0.21 U/ml"}, {"measurement": "Blood BuChE U/ml", "setting": "[2]; blood of EAE mice, 70.1 mg/kg salt", "result": "1.01 +/− 0.18 U/ml"}, {"measurement": "Brain BuChE U/g", "setting": "[2]; brain of EAE mice, 10.2 mg/kg salt", "result": "0.35 +/− 0.04 U/g"}, {"measurement": "Brain BuChE U/g", "setting": "[2]; brain of EAE mice, 25.5 mg/kg salt", "result": "0.31 +/− 0.04 U/g"}, {"measurement": "Brain BuChE U/g", "setting": "[2]; brain of EAE mice, 51 mg/kg salt", "result": "0.22 +/− 0.03 U/g"}, {"measurement": "Brain BuChE U/g", "setting": "[2]; brain of EAE mice, 70.1 mg/kg salt", "result": "0.25 +/− 0.06 U/g"}, {"measurement": "inhibition at 10.2 mg/kg", "setting": "[2]; blood of EAE mice, 10.2 mg/kg salt, read-out: Blood BchE % inhibition", "result": 6.7, "unit": "%"}, {"measurement": "inhibition at 25.5 mg/kg", "setting": "[2]; blood of EAE mice, 25.5 mg/kg salt, read-out: Blood BchE % inhibition", "result": 10.1, "unit": "%"}, {"measurement": "inhibition at 51 mg/kg", "setting": "[2]; blood of EAE mice, 51 mg/kg salt, read-out: Blood BchE % inhibition", "result": 35.3, "unit": "%"}, {"measurement": "inhibition at 70.1 mg/kg", "setting": "[2]; blood of EAE mice, 70.1 mg/kg salt, read-out: Blood BchE % inhibition", "result": 38.4, "unit": "%"}, {"measurement": "inhibition at 10.2 mg/kg", "setting": "[2]; brain of EAE mice, 10.2 mg/kg salt, read-out: Brain BchE % inhibition", "result": 7.9, "unit": "%"}, {"measurement": "inhibition at 25.5 mg/kg", "setting": "[2]; brain of EAE mice, 25.5 mg/kg salt, read-out: Brain BchE % inhibition", "result": 18.4, "unit": "%"}, {"measurement": "inhibition at 51 mg/kg", "setting": "[2]; brain of EAE mice, 51 mg/kg salt, read-out: Brain BchE % inhibition", "result": 42.1, "unit": "%"}, {"measurement": "inhibition at 70.1 mg/kg", "setting": "[2]; brain of EAE mice, 70.1 mg/kg salt, read-out: Brain BchE % inhibition", "result": 34.2, "unit": "%"}, {"measurement": "Group Mean Score", "setting": "[3]; ladostigil salt 10.2 mg/kg", "result": "2.75 ± 1.3"}, {"measurement": "Incidence", "setting": "[3]; ladostigil salt 10.2 mg/kg", "result": "15/15"}, {"measurement": "Mean Maximal Score", "setting": "[3]; ladostigil salt 10.2 mg/kg", "result": "4.33 ± 1.1"}, {"measurement": "Mean Onset", "setting": "[3]; ladostigil salt 10.2 mg/kg", "result": "12.0 ± 2.4", "unit": "days"}, {"measurement": "Mortality", "setting": "[3]; ladostigil salt 10.2 mg/kg", "result": "2/15"}, {"measurement": "% Inhibition", "setting": "[3]; ladostigil salt 10.2 mg/kg", "result": 9.5, "unit": "%"}, {"measurement": "Group Mean Score", "setting": "[3]; ladostigil salt 25.5 mg/kg", "result": "3.08 ± 1.4"}, {"measurement": "Incidence", "setting": "[3]; ladostigil salt 25.5 mg/kg", "result": "15/15"}, {"measurement": "Mean Disease Duration", "setting": "[3]; ladostigil salt 25.5 mg/kg", "result": "35.3 ± 8.8", "unit": "days"}, {"measurement": "Mean Maximal Score", "setting": "[3]; ladostigil salt 25.5 mg/kg", "result": "4.33 ± 1.0"}, {"measurement": "Mean Onset", "setting": "[3]; ladostigil salt 25.5 mg/kg", "result": "11.6 ± 2.1", "unit": "days"}, {"measurement": "Mortality", "setting": "[3]; ladostigil salt 25.5 mg/kg", "result": "3/15"}, {"measurement": "% Inhibition", "setting": "[3]; ladostigil salt 25.5 mg/kg", "result": "−1.3", "unit": "%"}, {"measurement": "Group Mean Score", "setting": "[3]; ladostigil salt 51 mg/kg", "result": "2.26 ± 1.1"}, {"measurement": "Incidence", "setting": "[3]; ladostigil salt 51 mg/kg", "result": "15/15"}, {"measurement": "Mean Disease Duration", "setting": "[3]; ladostigil salt 51 mg/kg", "result": "31.3 ± 13.2", "unit": "days"}, {"measurement": "Mean Maximal Score", "setting": "[3]; ladostigil salt 51 mg/kg", "result": "3.83 ± 1.1"}, {"measurement": "Mean Onset", "setting": "[3]; ladostigil salt 51 mg/kg", "result": "11.4 ± 3.1", "unit": "days"}, {"measurement": "Mortality", "setting": "[3]; ladostigil salt 51 mg/kg", "result": "1/15"}, {"measurement": "% Inhibition", "setting": "[3]; ladostigil salt 51 mg/kg", "result": 25.7, "unit": "%"}, {"measurement": "Incidence", "setting": "[3]; ladostigil salt 70.1 mg/kg", "result": "15/15"}, {"measurement": "Mean Maximal Score", "setting": "[3]; ladostigil salt 70.1 mg/kg", "result": "3.73 ± 1.0"}, {"measurement": "Mean Onset", "setting": "[3]; ladostigil salt 70.1 mg/kg", "result": "11.6 ± 2.3", "unit": "days"}, {"measurement": "Mortality", "setting": "[3]; ladostigil salt 70.1 mg/kg", "result": "1/15"}, {"measurement": "% Inhibition", "setting": "[3]; ladostigil salt 70.1 mg/kg", "result": 33.2, "unit": "%"}]}]}
